Data taken from publication PMC8215677 (Frontiers in Pharmacology, 2021).
Structures can show the parent of a compound that is named as a salt. Where two headings read alike, the source gives them in different places. Marks after values point to notes of the source that are not given here.

What was measured:
[1] = Solubility of berberine hydrochloride in the NADES, its water dilutions and malic acid solutions; assay type: physicochemical
Description: BBR was dissolved in pure water as a control. The solutions were ultrasonically treated for 1 h, and after full vortexing, the solutions were placed at room temperature for 1 h. Next, the solutions were centrifuged at 20,000 g for 10 min at 20°C. The obtained supernatant was filtered through a 0.22 μm membrane. The filtered solution was diluted with a certain volume of methanol, followed by injection into the LC-MS system for the quantitative analysis of BBR (Quantification of several Coptidis Rhizomaalkaloids).
The concentrations of the primary metabolites were equal to their concentrations in the NADES, i.e., 490.5 mg/ml, 280.6 mg/ml, 517.7 mg/ml, and 19.0 mg/ml, respectively.

[2] = Transportation of BBR across MDCK-MDR1 cell monolayer; assay type: in vitro ADME, canine; details: dog, MDCK-MDR1
Description: (§1) MDCK-MDR1 cells were seeded on a Merck Transwell polycarbonate membrane (NJ, United States) at a density of 2 × 10^5 cells/mL. The cells were cultured until the tight junctions were formed (transepithelial electrical resistance value >500 Ω cm2). Before the experiment, the media on both sides of the chamber were replaced with a warmed HBSS solution. The cells were then incubated for 20 min at 37°C.
(§2) The unit of P app is cm/sec.

MDCK-MDR1 cell monolayer = test: as above; assay type: in vitro ADME, canine; details: for P app (AP-BL) / P app (BL-AP) / ERs (efflux rate): BBR 10 μg/ml
Description: as §1, §2

[3] = Pharmacokinetics of oral BBR in mice (portal vein and liver); assay type: in vivo, mice; details: for AUC0-∞ / AUC0–12 h / Cmax / MRT / Tmax / half-life / AUC(0-inf) / AUC(0-t): mice; for AUC(0-t): read-out: AUC0–12 h
Description: The dosages of malic acid were, respectively, equal to the dosages of malic acid in the 1 and 10% water dilutions of the NADES. […] Six mice in each group were anesthetized using diethyl ether at 0.25, 0.5, 1, 2, 3, 4, 6, 8, or 12 h after administration. Blood samples were then collected from the portal vein into heparin-containing tubes. The plasma samples were obtained by centrifugation of the blood samples at 1,000 g for 10 min at 4°C. The livers of the mice were collected and homogenized in 10 × volume of water. At the end of the experiment, the mice were euthanized by cervical dislocation.
A non-compartmental analysis using WinNonlin® software (Pharsight, CA, United States) was performed to obtain the pharmacokinetic parameters of berberine in mice. It should be noted that the pharmacokinetic parameters were calculated based on the average drug concentration at each time point because the mice were not continuously sampled.

[4] = ref Liu et al., cited from earlier work
ICR mice = test: Acute toxicity in mice; assay type: in vivo; details: malic acid 9,800, 2,940 or 980 mg/kg oral
Description: Sixty ICR mice were randomly divided into three groups according to gender and body weight, with 20 mice in each group. After fasting for 12 h, the mice were orally administered with 0.2 ml/10 g body weight the NADES (the four-component NADES prepared with 350 μL water, the same below) or its 30 and 10% water dilutions, respectively. The symptoms of the mice were then observed, and the death time and the number of dead mice within 3 days were recorded.
The above method was also used to evaluate the acute toxicity of malic acid at different dosages, i.e., 9,800, 2,940, or 980 mg/kg, which were, respectively, equal to the dosages of malic acid in the NADES and its 30%, and10% water dilutions.

mouse gut sacs = test: Transportation of BBR in mouse gut sacs; assay type: in vitro ADME; details: BBR 200 μg/ml
Description: After incubation, aliquots of buffer (100 μL) were, respectively, taken from the serosal side or mucosal side every 15–60 min and replaced with an equal volume of blank Krebs-Ringer buffer. The LC-MS system (Quantification of several Coptidis Rhizomaalkaloids) was used for the quantitative analysis of BBR.

[5] = system: intestinal paracellular tight junctions (mouse gut sac); test: Transportation of FD4 across mouse gut sacs (tight junction integrity); assay type: in vitro ADME
Description: Fluorescein isothiocyanate-labeled dextran (FD4) with a molecular weight of 4,400 g/moL, is usually used to test the integrity of intestinal paracellular tight junctions ([Ma et al., 2012]). The influence of various NADES dilutions (1, 3, and 10%) on the in vitro transportation of FD4 (3 mg/ml) across the mouse gut sac was determined. The concentrations of FD4 were determined using a fluorescence microplate reader (BioTek Instruments, Winooski, VT, United States), with excitation and emission at 485 and 528 nm, respectively, ([Ma et al., 2012]). In addition, the effects of NADES dilutions pretreatment on the transportation of FD4 across the mouse gut sacs were also determined. Several mice were orally administered with 10% NADES aqueous solution. The intestines were collected after 4 h, completely washed with blank Krebs-Ringer buffer, and subsequently used for the transportation study.

MDCK-MDR1 cells = test: Cytotoxicity in MDCK-MDR1 cells (CCK-8); details: 4 and 24 h; for Cytotoxicity: p > 0.05
Description: The cells were seeded into 96 well plate at the density of 3 × 10^4 cells per well. After 24 h incubation in the incubator, the culture medium was carefully sucked out, and then 200 μL DMEM medium containing 0.1, 0.3, 1 or 3% NADES was added. The control well was added with the same volume of DMEM medium. After incubation for 4 h or 24 h, 10% CCK-8 solution was added. After incubation for another 2 h, the absorbance at 450 nm was measured by using a microplate reader. The cytotoxicity of the NADES dilutions was evaluated by comparing the absorbance of the treatment groups to that of the control group.
The above method was also used to evaluate the cytotoxicity of different concentrations of malic acid, i.e., 4.90, 1.47 or 0.49 mg/ml, which were, respectively, equal to the concentrations of malic acid in the 1, 0.3 or 0.1% dilutions of the NADES.

[6] = livers, oral BBR 200 mg/kg dissolved in water (Control)
[7] = livers, oral BBR 200 mg/kg in 1% NADES dilution
[8] = livers, oral BBR 200 mg/kg in 10% NADES dilution
[9] = livers, oral BBR 200 mg/kg in malic acid solution 98 mg/kg
[10] = livers, oral BBR 200 mg/kg in malic acid solution 980 mg/kg
[11] = mouse, liver, po, 200 mg/kg, livers, oral BBR 200 mg/kg dissolved in water (Control)
[12] = mouse, liver, po, 200 mg/kg, livers, oral BBR 200 mg/kg in 1% NADES dilution
[13] = mouse, liver, po, 200 mg/kg, livers, oral BBR 200 mg/kg in 10% NADES dilution
[14] = mouse, liver, po, 200 mg/kg, livers, oral BBR 200 mg/kg in malic acid solution 98 mg/kg
[15] = mouse, liver, po, 200 mg/kg, livers, oral BBR 200 mg/kg in malic acid solution 980 mg/kg
[16] = mouse, portal vein plasma, po, 200 mg/kg, portal vein, oral BBR 200 mg/kg dissolved in water (Control)
[17] = mouse, portal vein plasma, po, 200 mg/kg, portal vein, oral BBR 200 mg/kg in 1% NADES dilution
[18] = mouse, portal vein plasma, po, 200 mg/kg, portal vein, oral BBR 200 mg/kg in 10% NADES dilution
[19] = mouse, portal vein plasma, po, 200 mg/kg, portal vein, oral BBR 200 mg/kg in malic acid solution 98 mg/kg
[20] = mouse, portal vein plasma, po, 200 mg/kg, portal vein, oral BBR 200 mg/kg in malic acid solution 980 mg/kg

## COc1ccc2cc3[n+](cc2c1OC)CCc1cc2c(cc1-3)OCO2 [BBR, Berberine hydrochloride]
[1]; NADES (undiluted), in the NADES (100%), room temperature (20°C)
  solubility: ≥ 20 mg/mL
[1]; as the pH of the malic acid solution was increased by addition of NaOH, p < 0.01
  Solubility of berberine hydrochloride: increased
[1]; in 10% water dilution of NADES, p < 0.01
  Solubility of BBR compared with water: higher
[1]; in 30% water dilution of NADES, p < 0.01
  Solubility of BBR compared with water: higher
[2]
  Papp A→B at 10 μg/ml: 0.41 ± 0.06 ×10⁻⁶ cm/s
  Papp B→A at 10 μg/ml: 13.3 ± 0.4 ×10⁻⁶ cm/s
MDCK-MDR1 cell monolayer; with 0.3% NADES
  P app (AP-BL): 0.88 ± 0.13 ×10^−6 cm/s
  P app (BL-AP): 13.1 ± 1.9 ×10^−6 cm/s
MDCK-MDR1 cell monolayer; with 0.3% NADES, p < 0.05 vs Control
  ERs (efflux rate): 14.9*
MDCK-MDR1 cell monolayer; with 1% NADES
  P app (AP-BL): 20.1 ± 8.7 ×10^−6 cm/s
  P app (BL-AP): 21.7 ± 1.4 ×10^−6 cm/s
MDCK-MDR1 cell monolayer; with 1% NADES, p < 0.01 vs Control
  ERs (efflux rate): 1.1**
MDCK-MDR1 cell monolayer; BBR alone
  P app from AP to BL: lower than 10^−6 cm/s
[3]; [6]
  AUC0-∞: 68.4 μg·h/g liver
  AUC0–12 h: 66.3 μg·h/g liver
  Cmax: 16.7 μg/g liver
[3]; [7]
  AUC0-∞: 80.9 μg·h/g liver
  AUC0–12 h: 74.5 μg·h/g liver
  Cmax: 29.3 μg/g liver
[3]; [8]
  AUC0-∞: 112.5 μg·h/g liver
  AUC0–12 h: 109.4 μg·h/g liver
  Cmax: 34.8 μg/g liver
[3]; [9]
  AUC0-∞: 73.8 μg·h/g liver
  AUC0–12 h: 72.3 μg·h/g liver
  Cmax: 38.0 μg/g liver
[3]; [10]
  AUC0-∞: 88.3 μg·h/g liver
  AUC0–12 h: 85.9 μg·h/g liver
  Cmax: 30.0 μg/g liver
[3]; mouse, in vivo, po
  Toxic reaction after oral administration: no toxic reaction
[3]; [11]
  MRT: 3.7 h
  Tmax: 2 h
  half-life: 2.2 h
[3]; [12]
  MRT: 3.2 h
  Tmax: 2 h
[3]; [13]
  MRT: 3 h
  Tmax: 1 h
  half-life: 2.2 h
[3]; [14]
  MRT: 3 h
  Tmax: 2 h
  half-life: 2.3 h
[3]; [15]
  MRT: 2.5 h
  Tmax: 1 h
  half-life: 1.5 h
[3]; [16]
  AUC(0-inf): 1130 ng·h/mL
  MRT: 3.1 h
  Tmax: 2 h
  half-life: 1.7 h
  AUC(0-t): 1120 ng·h/mL
[3]; mouse, portal vein plasma, po, 200 mg/kg, portal vein, oral BBR 200 mg/kg dissolved in water (Control), read-out: Cmax
  Cmax: 321 ng/mL
[3]; [17]
  AUC(0-inf): 2740 ng·h/mL
  MRT: 2.9 h
  Tmax: 2 h
  half-life: 1.3 h
  AUC(0-t): 2730 ng·h/mL
[3]; mouse, portal vein plasma, po, 200 mg/kg, portal vein, oral BBR 200 mg/kg in 1% NADES dilution, read-out: Cmax
  Cmax: 975 ng/mL
[3]; [18]
  AUC(0-inf): 3610 ng·h/mL
  MRT: 2.4 h
  Tmax: 1 h
  half-life: 1.7 h
  AUC(0-t): 3590 ng·h/mL
[3]; mouse, portal vein plasma, po, 200 mg/kg, portal vein, oral BBR 200 mg/kg in 10% NADES dilution, read-out: Cmax
  Cmax: 1470 ng/mL
[3]; [19]
  AUC(0-inf): 2300 ng·h/mL
  MRT: 2.7 h
  Tmax: 2 h
  half-life: 2.7 h
  AUC(0-t): 2230 ng·h/mL
[3]; mouse, portal vein plasma, po, 200 mg/kg, portal vein, oral BBR 200 mg/kg in malic acid solution 98 mg/kg, read-out: Cmax
  Cmax: 972 ng/mL
[3]; [20]
  AUC(0-inf): 3070 ng·h/mL
  MRT: 2.1 h
  Tmax: 1 h
  half-life: 1.4 h
  AUC(0-t): 3060 ng·h/mL
[3]; mouse, portal vein plasma, po, 200 mg/kg, portal vein, oral BBR 200 mg/kg in malic acid solution 980 mg/kg, read-out: Cmax
  Cmax: 1250 ng/mL
[4]; 2010
  Fraction of oral BBR directly removed with feces: about 56%
  Fraction of oral BBR eliminated by intestinal efflux transporters and drug metabolizing enzymes: about 43.5%
  Oral bioavailability: 0.36%
[4]; 2016
  Fraction of BBR directly discharged from the body after oral administration: about 56%
  Fraction of oral BBR eliminated during intestinal absorption: 43.5%

## O=C(O)CC(O)C(=O)O (centres unmarked) [malic acid]
ICR mice
  Acute toxicity: significant acute toxicity
Mouse gut sacs; malic acid 14.7 mg/ml or more
  Effect on efflux of BBR in gut sacs: promoted the efflux
Mouse gut sacs; malic acid 4.9–49.0 mg/ml, concentration-dependent
  Effect on absorption of BBR in gut sacs: promoted the absorption
[5]; malic acid 4.9, 14.7, 49.0 mg/ml present, concentration dependent, p < 0.01
  Effect on absorption of FD4 across mouse gut sacs: increased the absorption
[5]; malic acid pretreatment for 4 h
  Reversibility of the effect on FD4 absorption: reversible
MDCK-MDR1 cells; 0.49 mg/ml malic acid
  Cytotoxicity: no significant cytotoxicity
MDCK-MDR1 cells; 1.47 mg/ml malic acid
  Cytotoxicity: no significant cytotoxicity
MDCK-MDR1 cells; 4.9 mg/ml malic acid, p < 0.01
  Cell viability: completely lost
